The source of these data is paper PMC5430407 (ACS Medicinal Chemistry Letters, 2017).

One data set has as its target IDO1 in HeLa cells (Homo sapiens, UniProt P14902). Briefly: HeLa cell-based IDO1/kynurenine assay. As to conditions: calculated using HeLa pIC50; for LLE (lipophilic ligand efficiency): LLE = pIC50 – cLogP.
The next data set deals with Caco-2 cells. Briefly: Caco-2 permeability. The data set is classed as in vitro ADME. The note with it: A-B, 50 µM, 120 min. For orientation: Passage across Caco-2 layers is used to estimate intestinal permeability.
Data set [1] can be described thus: 28-day IND toxicology study in mice. Format: in vivo, mouse.
In the next data set the test system is plasma kynurenine. Nature of the data set: PK/PD study in mice, plasma kynurenine. As to conditions: wild-type mice, once daily oral dosing at 50 mg/kg. The data set is classed as in vivo, mouse.
The test system of another data set is CT26 tumor. Briefly: CT26 tumor growth in immune-compromised mice. Format: in vivo, mouse. As to conditions: immune-compromised mice (nu/nu).
A short description of data set [2]: Allometric scaling, predicted human dose. The note with it: allometric scaling to cover the WB IC50 at trough.
Data set [3] in a line: 28-day IND toxicology study in dogs. Format: in vivo, dog.
Data set [4] deals with CEREP panel of over 50 receptors and enzymes. Nature of the data set: CEREP panel.

Molecules are shown by their SMILES.

IDO1 in HeLa cells, sequence (P14902 whole entry): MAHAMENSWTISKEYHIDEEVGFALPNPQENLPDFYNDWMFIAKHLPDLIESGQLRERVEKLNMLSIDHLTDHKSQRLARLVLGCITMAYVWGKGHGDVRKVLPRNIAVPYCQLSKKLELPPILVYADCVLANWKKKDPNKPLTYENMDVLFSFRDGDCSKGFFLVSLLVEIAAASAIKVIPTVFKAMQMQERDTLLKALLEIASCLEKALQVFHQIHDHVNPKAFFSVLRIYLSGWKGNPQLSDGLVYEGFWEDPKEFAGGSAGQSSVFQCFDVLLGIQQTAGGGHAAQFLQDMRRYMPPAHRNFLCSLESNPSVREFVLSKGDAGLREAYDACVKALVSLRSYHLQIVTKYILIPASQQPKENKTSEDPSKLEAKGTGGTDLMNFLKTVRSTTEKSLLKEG

Consider `COCCNc1nonc1/C(=N/O)Nc1ccc(F)c(Br)c1` [Compound 4a], for which, on IDO1 in HeLa cells, the “LE (ligand efficiency)” value is 0.45. Also, in the data set on Caco-2 cells, the “Caco2 Pm” value is recorded as 44 × (10)^−6 cm/s.
Regarding `OCCNc1nonc1/C(=N/O)Nc1ccc(F)c(Br)c1` [Compound 4b], on IDO1 in HeLa cells, the “LE (ligand efficiency)” value is 0.51 and the “LLE (lipophilic ligand efficiency)” value is given as 5.8. In addition, the “Caco2 Pm” value in the data set on Caco-2 cells was 31 × (10)^−6 cm/s.
`NCCNc1nonc1/C(=N/O)Nc1ccc(F)c(Br)c1` [Compound 4c]: at IDO1 in HeLa cells, the “LE (ligand efficiency)” value was 0.47. Moreover, in the data set on Caco-2 cells, the “Caco2 Pm” value is given as 1.8 × (10)^−6 cm/s.
The matching figures for `CC(=O)NCCNc1nonc1/C(=N/O)Nc1ccc(F)c(Br)c1` [Compound 4d]: 0.45 and 19 × (10)^−6 cm/s.
For `CS(=O)(=O)NCCNc1nonc1C(=NO)Nc1ccc(F)c(Br)c1` [Compound 4e], on IDO1 in HeLa cells, the “LLE (lipophilic ligand efficiency)” value was 5.8.
Regarding `NS(=O)(=O)NCCNc1nonc1C(=NO)Nc1ccc(F)c(Br)c1` [Compound 4f, epacadostat], the tolerability result in data set [1] and in data set [3] was “well-tolerated” throughout. The “plasma kynurenine level reached (basal level of IDO null mice)” value in the data set on plasma kynurenine is approximately 400 nM. For the same compound, the “tumor growth inhibition, treated vs control animals” value in the data set with CT26 tumor is on record as “no difference”. The “predicted oral dosing in humans” value in data set [2] was 50 mg twice-a-day. The “in vitro toxicology result, CEREP panel” value in data set [4] is “clean”.
In the case of `NS(=O)(=O)NCCNc1nonc1C(=NO)Nc1ccc(F)c(Cl)c1` [Compound 4g], the “Caco2 Pm” value with Caco-2 cells was 4.3 × (10)^−6 cm/s.
